Reference: US8450374B2, “Pan-antagonists for the androgen receptor and androgen receptor mutants associated with anti-androgen withdrawal” (priority 2009, dated 2013)
Changes are numbered by the printed parent chain.

Key:
AR wt = biological target: T1, AR wt (Homo sapiens, UniProt P10275); assay: Transcription assay (ARE-luciferase reporter) in CV-1 cells, wild-type AR; type: cell-based; design: expressed in transfected cells; host or cells: CV-1; conditions: for Antagonist efficacy (RLU value at IC50), AR wt: in competition with 3 nM DHT, normalized to 10 nM DHT in hAR(wt)
T1 sequence (P10275 1-920): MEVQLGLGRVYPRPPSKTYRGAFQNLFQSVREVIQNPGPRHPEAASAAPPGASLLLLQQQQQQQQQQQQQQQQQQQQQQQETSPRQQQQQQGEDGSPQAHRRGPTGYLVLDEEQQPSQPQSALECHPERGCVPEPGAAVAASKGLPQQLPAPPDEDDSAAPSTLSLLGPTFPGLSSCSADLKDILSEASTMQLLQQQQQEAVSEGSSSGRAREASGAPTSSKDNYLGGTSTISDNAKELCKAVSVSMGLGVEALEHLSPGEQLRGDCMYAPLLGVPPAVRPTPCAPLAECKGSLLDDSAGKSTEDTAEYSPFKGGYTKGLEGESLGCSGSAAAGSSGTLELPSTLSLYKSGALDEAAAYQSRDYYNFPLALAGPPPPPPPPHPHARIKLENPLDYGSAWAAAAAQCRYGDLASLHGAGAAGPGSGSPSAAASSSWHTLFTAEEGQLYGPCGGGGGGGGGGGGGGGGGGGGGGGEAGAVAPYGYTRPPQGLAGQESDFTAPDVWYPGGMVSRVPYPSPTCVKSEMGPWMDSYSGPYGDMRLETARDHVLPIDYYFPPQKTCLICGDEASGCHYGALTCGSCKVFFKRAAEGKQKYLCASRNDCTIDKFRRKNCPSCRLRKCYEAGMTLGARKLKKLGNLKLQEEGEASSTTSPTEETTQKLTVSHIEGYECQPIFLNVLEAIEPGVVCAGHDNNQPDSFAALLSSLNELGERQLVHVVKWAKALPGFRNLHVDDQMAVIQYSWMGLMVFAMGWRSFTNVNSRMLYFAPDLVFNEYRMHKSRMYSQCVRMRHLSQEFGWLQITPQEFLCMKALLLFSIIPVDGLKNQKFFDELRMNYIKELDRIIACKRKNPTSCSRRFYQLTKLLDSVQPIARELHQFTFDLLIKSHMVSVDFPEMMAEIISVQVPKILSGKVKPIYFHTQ
Protocol: Twenty-four hours prior to transfection, CV-1 cells were seeded at a density of 45,000 cells per well in 24-well cell culture plates and grown in phenol red free Dulbecco's Modified Eagle Medium (DMEM) supplemented with 10% cosmic calf serum (COS). ARE-luciferase reporter and Renilla-Luc as the internal standard and a prokaryotic expression vector encoding the wild-type androgen receptor or mutant androgen receptor were transfected with Lipofectamine (Invitrogen) following manufacturer's protocol. Five hours after transfection, media was added containing the appropriate concentrations of ligands. The cells were allowed to incubate for 38 hours before harvesting by passive lysis buffer. Cell extracts were immediately assayed using the Dual Luciferase Assay (Promega) with a Perkin-Elmer Microbeta Luminometer. […] Dose-response data was analyzed by nonlinear regression analysis using GraphPad Prism.

AR W741C = biological target: T2, AR W741C (Homo sapiens, UniProt P10275, W742C); assay: Competitive binding assay, [3H]DHT, transfected COS-7 cells, AR W741C; design: expressed in transfected cells; host or cells: COS-7; conditions: 75 nM [3H]-DHT, read-out: Binding affinity (Ki), AR W741C
T2 sequence (P10275 1-920 W742C): T1 sequence (P10275 1-920) with W742C
Protocol: Twenty-four hours prior to transfection, COS-7 cells were seeded at a density of 70,000 cells per well in 24-well cell culture plates and grown in phenol red free Dulbecco's Modified Eagle Medium (DMEM) supplement with 10% cosmic calf serum (CCS). The cells were transfected with a prokaryotic expression vector encoding the wild-type androgen receptor or mutant androgen receptor using Lipofectamine (Invitrogen) following manufacturer's protocol. […] Cells were washed with PBS and harvested in 2% SDS, 10% glycerol, and 10 mM Tris, pH 6.8, and radioactivity determined by scintillation counting.

CN(C)CCCOc1cccc(Cc2ccccc2S(=O)(=O)CC(C)(O)C(=O)Nc2ccc(C#N)c(C(F)(F)F)c2)c1 (centres unmarked) [PAN22]
IC50 (AR wt): 2000 ± 2200 nM
Antagonist efficacy (RLU value at IC50), AR wt (AR wt): (50% ± 30%)
Ki (AR W741C): 9800 nM

CC(O)(CS(=O)(=O)c1ccccc1-c1ccccc1O)C(=O)Nc1ccc(C#N)c(C(F)(F)F)c1 (centres unmarked) [PAN41, N-(4-cyano-3-(trifluoromethyl)phenyl)-2-hydroxy-3-(2′-hydroxybiphenyl-2-ylsulfonyl)-2-methylpropanamide]
IC50 (AR wt): 1200 ± 500 nM
Antagonist efficacy (RLU value at IC50), AR wt (AR wt): (45% ± 14%)

CN(C)CCCOc1cccc(-c2ccccc2S(=O)(=O)CC(C)(O)C(=O)Nc2ccc(C#N)c(C(F)(F)F)c2)c1 (centres unmarked) [PAN52]
IC50 (AR wt): 3500 ± 2000 nM
Antagonist efficacy (RLU value at IC50), AR wt (AR wt): (49% ± 4.4%)
Ki (AR W741C): 7300 nM

CN(C)CCCOc1ccc(-c2ccccc2S(=O)(=O)CC(C)(O)C(=O)Nc2ccc(C#N)c(C(F)(F)F)c2)cc1 (centres unmarked) [PAN62]
IC50 (AR wt): 2300 ± 900 nM
Antagonist efficacy (RLU value at IC50), AR wt (AR wt): (51% ± 9.1%)
Ki (AR W741C): 2620 nM
